Assay results as given in patent US20220364065A1, “COMPOSITION FOR REMOVING PLURIPOTENT STEM CELLS AND METHOD OF REMOVING PLURIPOTENT STEM CELLS” (NATIONAL UNIVERSITY CORPORATION HOKKAIDO UNIVERSITY, priority 2018, published 2022).
Entries after “also recorded” stand apart in the source; their conditions may differ.

Assays:
[1] = Side effects in treated tumor-bearing mice; format: in vivo; settings: NOD/SCID mice, BRQ intraperitoneally
mouse astrocytes = assay: MTT assay, viability of mouse astrocytes; format: cell-based; settings: 10 μM BRQ, 3 days
Experimental: (§1) One thousand cells were seeded into each well of a 96-well plate and cultured for 3 days in medium (200 μL/well) supplemented with only DMSO at a final concentration of 0.1% or in medium (200 μL/well) supplemented with each dihydroorotate dehydrogenase (DHODH) inhibitor. The medium used was the appropriate culture solution for each cell as described above.
(§2) The concentration of each DHODH inhibitor added to the medium was a 2-fold dilution series starting from 200 μM.
(§3) As a background, a well containing medium only was prepared, and as a control, a well was also prepared in which medium containing Triton X-100 (final concentration 0.2%) was added to the cells.
(§4) Then, 5 μL of MTT (5 mg/ml, manufactured by Wako) was added to each well, and the cells were incubated at 37° C. for 2 to 3 hours. Then, the medium was replaced with 100 μL of DMSO to lyse the cells, and the absorbance of these cell lysates at a wavelength of 570 nm was measured with a microplate reader (manufactured by Bio-Rad, Benchmark model). In addition, based on the obtained absorbance, the cell viability was calculated by the following formula.
(§5) Cell viability (%)=(absorbance in wells with DHODH inhibitor-absorbance in background)/(absorbance in control-absorbance in background)×100.

mouse ES cells [2] = assay: Quantitative RT-PCR of Sox2, Oct4, Nanog, ES cells; format: cell-based; settings: 10 μM BRQ, 2 days
Experimental: First, total RNA was prepared from cells using the RNeasy kit (manufactured by Qiagen), and cDNA was synthesized using the Transcriptor First Strand cDNA Synthesis Kit (manufactured by Roche Applied Science).
Then, the cDNA was used as a template, and Thunderbird Cyber qPCR Mix (manufactured by TOYOBO) and Step One Plus (manufactured by Thermo Fisher Scientific) were used to perform real-time PCR. The reaction conditions were set at 95° C. for 15 seconds and 60° C. for 30 seconds for 40 cycles, and the oligonucleotide primers shown below were used to amplify each target gene.
Note that the expression level of each target gene detected in this way was normalized by the relative quantification method (delta delta Ct method) based on the expression level of 18S ribosomal RNA.

mouse ES cells [3] = assay: MTT assay, viability of mouse ES cells; format: cell-based; settings: 3 days
Experimental: as §1, §2, §3, §4, §5

mouse iPS cells [4] = assay: Immunostaining of pluripotent stem cell markers (Sox2, Nanog, Oct4), iPS cells; format: cell-based
Experimental: The cells were fixed and immunostained as described in Kondo et al., Genes Dev. […] For the culture of ES cells and iPS cells, gelatin-coated ones were used.
For immunostaining, the cells were first washed once with PBS, then fixed by adding 4% paraformaldehyde and incubating for 10 minutes at room temperature. The cells were replaced with PBS containing 0.3% Triton X100 and incubated for 5 minutes at room temperature, then replaced with PBS containing 0.3% Triton X100 and 10% FCS (blocking solution) and incubated for 30 minutes at room temperature. The solution was replaced with primary antibody solution diluted in blocking solution and incubated for 2 hours at room temperature. After washing three times with PBS, secondary antibody and DAPI solution diluted with blocking solution were added and incubated at room temperature for 2 hours. […] Note that the cell nuclei were visualized by contrast staining with DAPI solution (1 μg/mL, manufactured by Dojindo, product code: D523). In addition, fluorescence images were acquired with an Axiolmager M1 microscope (manufactured by Carl Zeiss).
LMB is a specific inhibitor of CRM1, also known as Exportin 1.

[5] = test system: NT2: human embryonal carcinoma (EC) cells; assay: MTT assay, viability of NT2 cells; format: cell-based; settings: 10 μM BRQ, 3 days
Experimental: as §1, §2, §3, §4
(§6) Cell viability (%)=(absorbance in wells with DHODH inhibitor-absorbance in background)/(absorbance in control-absorbance in background)×100. […]

mouse iPS cells [6] = assay: MTT assay, viability of mouse iPS cells; format: cell-based; settings: 3 days
Experimental: as §1, §2, §3, §4, §5

mouse ES cells [7] = assay: Cell proliferation and cell death (BrdU uptake, Ki67, Casp3 immunostaining), ES cells; format: cell-based; settings: BRQ 2 days
Experimental: The cells were fixed and immunostained as described in Kondo et al., Genes Dev. 2004, Vol. 18, Issue 23, pp. 2963-72. […] For the culture of mNSCs, PDL+fibronectin-coated ones were used (see Johe KK et al., Genes Dev. 1996, Vol. 10, Issue 24, pp. 3129 to 3140). For the culture of ES cells and iPS cells, gelatin-coated ones were used.
For immunostaining, the cells were first washed once with PBS, then fixed by adding 4% paraformaldehyde and incubating for 10 minutes at room temperature. The cells were replaced with PBS containing 0.3% Triton X100 and incubated for 5 minutes at room temperature, then replaced with PBS containing 0.3% Triton X100 and 10% FCS (blocking solution) and incubated for 30 minutes at room temperature. The solution was replaced with primary antibody solution diluted in blocking solution and incubated for 2 hours at room temperature. After washing three times with PBS, secondary antibody and DAPI solution diluted with blocking solution were added and incubated at room temperature for 2 hours. After washing three times with PBS, the cells were sealed with anti-fading agent (manufactured by DAKO, code number: 53023) and observed under a microscope. […] In addition, fluorescence images were acquired with an Axiolmager M1 microscope (manufactured by Carl Zeiss). […]

mouse iPS cells [8] = assay: Teratoma formation from pretreated iPS cells in NOD/SCID mice; format: in vivo; settings: iPS cells pretreated 2 days with 10 μM BRQ, subcutaneous in NOD/SCID mice, 4 weeks
Experimental: The viable cells (1×10^6) were suspended in 50 μl of Matrigel (manufactured by BD Biosciences) and injected subcutaneously into the buttocks of 5-8-week-old NOD/SCID mice anesthetized with 10% pentobarbital. Four weeks after the injection, the mice were sacrificed to death, and the tumors were removed and photographed for their size measurement according to the method described in Tsukamoto Y, et al., Stem Cells. 2016; 34(8): 2016-2025. Based on the measurement values obtained, the volume of the tumors was calculated by the following formula.
Volume of tumor (cm^3)=major diameterxminor diameterxminor diameter×½.
Then, 4 weeks after transplantation, the tumors were removed and observed.

C2C12: mouse myoblasts = assay: MTT assay, viability of C2C12 cells; format: cell-based; settings: 10 μM BRQ, 3 days
Experimental: as §1, §2, §3, §4, §6

[9] = 2-fold dilution series starting from 200 μM
[10] = iPS cells, 2 days, BRQ 10 μM (ZVAD 100 nM where added)
[11] = mouse iPS cells, 10 μM BRQ, 24 hours

Question: Which “side effects in treated mice” value [1] does the source give for `Cc1c(-c2ccc(-c3ccccc3F)cc2)nc2ccc(F)cc2c1C(=O)O` [BRQ, 6-fluoro-2-(2′-fluoro-1,1′-biphenyl-4-yl)-3-methyl-4-quinoline-sodium carboxylate] here?
Answer: Its value is “no visible side effects”.

Question: And the “cytotoxic activity / sensitivity (viability, MTT assay)” value (mouse astrocytes)?
Answer: The value was “hyposensitive; also recorded: no significant cytotoxic activity”.

Question: What about the “expression levels of marker genes (Sox2, Oct4, Nanog)” value (mouse ES cells [2]) of the same compound?
Answer: Its value is “generally decreased”.

Question: And the “cytotoxic activity (viability, MTT assay)” value (mouse ES cells [3]; 10 μM BRQ)?
Answer: The value was “significant cytotoxic activity”.

Question: And the “cytotoxic activity (viability, MTT assay)” value (mouse ES cells [3]; [9])?
Answer: Its value is “significant cytotoxic activity”.

Question: And the Nanog-positive cells (mouse iPS cells [4]; [10])?
Answer: Its Nanog-positive cells is 0%.

Question: What about the Oct4-positive cells (mouse iPS cells [4]; [10]) of the same compound?
Answer: The Oct4-positive cells was 0%.

Question: And the “cells in which expression of Sox2 was not observed” value (mouse iPS cells [4]; [11])?
Answer: Its value is “about 30%”.

Question: And the “inhibition of cell proliferation or cell death” value (mouse iPS cells [4]; [11])?
Answer: The value was “inhibition of cell proliferation or cell death was already observed”.

Question: And the “subcellular localization of Nanog” value (mouse iPS cells [4]; mouse iPS cells, 10 μM BRQ, 2 days)?
Answer: The value was “distributed in the cytoplasm”.

Question: What about the “cytotoxic activity (viability, MTT assay)” value [5] of the same compound?
Answer: Its value is “significant cytotoxic activity”.

Question: And the “cytotoxic activity (viability, MTT assay)” value (mouse iPS cells [6]; 10 μM BRQ)?
Answer: The value was “significant cytotoxic activity”.

Question: And the “cytotoxic activity (viability, MTT assay)” value (mouse iPS cells [6]; [9])?
Answer: The value was “significant cytotoxic activity”.

Question: What about the “CASP3 activation (Casp3 immunostaining)” value (mouse ES cells [7]) of the same compound?
Answer: The value was “strongly activated”.

Question: And the “cell proliferation (BrdU uptake assay)” value (mouse ES cells [7])?
Answer: The value was “reduced the proliferation”.

Question: And the “tumor formation from pretreated cells” value (mouse iPS cells [8])?
Answer: Its value is “did not proliferate”.

Question: What about the “cytotoxic activity (viability, MTT assay)” value (C2C12: mouse myoblasts) of the same compound?
Answer: Its value is “no significant cytotoxic activity”.
